According to patent US12590322B2, “Devices and methods for mitochondria replacement and for generating cellular therapeutics” (NanoCav, LLC, priority 2018, dated 2026):

Legend:
[1] = system: Adult and neonatal human dermal fibroblast (HDF) cells; test: mtDNA depletion by ddC in human dermal fibroblasts; type: cell-based; details: 5 μM ddC, after sixteen days
From the text: FIGS. 12A-12C show generation of mtDNA depleted human dermal fibroblasts cells. […] 143 Rho Null (lacking mtDNA) and a control are also shown. […] GAPDH expression, used as a reference gene, was also shown in adult and neonatal human dermal fibroblast (HDF) cells. FIG. 12B is a table showing depletion of mtDNA in HDF adult and HDF neonatal cells at days sixteen and thirty. FIG. 12C is a line plot showing the data of FIG. 12B.
(§1) A 1000× stock of 2′,3′-dideoxycytidine (ddC, Sigma, Cat. #D5782) was prepared in water. BJ, ADF, and NDF cells cultured in complete media with 50 µg/ml uridine were added ddC to an appropriate final concentration. Cells were passaged every 3-4 d and fresh ddC was added over the course of 3 weeks. After ddC treatment, total DNA was extracted (Qiagen, Cat. #69504) and mtDNA quantified using SYBR Select Master Mix for CFX (Life Technologies, Cat. #4472942). mtDNA-encoded ND1 was probed with the following primers: forward: […] (SEQ ID NO: 1); reverse: […] (SEQ ID NO: 2). mtDNA levels were normalized to nuclear-encoded GAPDH using the following primers: forward: […] (SEQ ID NO: 3); reverse: […] (SEQ ID NO: 4). qPCR was run on a BioRad CFX Thermal Cycler using the following protocol: 1) 50° C. for 2 min, 2) 95° C. for 2 min, 3) 40 cycles-95° C. for 10 s and 60° C. for 45 s. Samples were compared by calculating ΔΔCT and fold differences.

[2] = system: BJ cells; test: mtDNA depletion by ddC in BJ primary fibroblasts, qPCR verification; type: cell-based, human; details: for mtDNA levels, % of initial untreated levels: 2.5 μM or 5 μM ddC
Protocol: FIGS. 11A-11B show generation of mtDNA depleted primary fibroblast lines in BJ cells. FIG. 11A is a bar chart showing that a minimum concentration of 2.5 μM of 2′,3′ dideoxycytidine (ddC), a reverse transcriptase inhibitor, was required to deplete mtDNA to below 5% of the original level, three weeks from initiation of treatment. […] FIG. 11B is a line plot showing the information of FIG. 11A.
as §1

[3] = system: BJs; test: Mutation signature comparison of ddC-treated BJs vs BJ parent, 30X whole genome sequencing; type: cell-based, human; details: for # SNVs / % of Total: 5 μM ddC treated BJs vs BJ parent
Protocol: A comparison of mutation signatures between 5 μM-ddC treated BJs and the BJ parent with 30× whole genome sequencing.

[4] = 5 μM ddC-treated BJs vs. BJ parent
[5] = ddC-treated cells, whole genome sequencing

Compound: Nc1ccn([C@H]2CC[C@@H](CO)O2)c(=O)n1 [ddC, 2′,3′-dideoxycytidine]
- mtDNA depletion [1]: mtDNA depletion
- mtDNA levels, % of initial untreated levels ([2]; three weeks from initiation of treatment): below 0.5%
- mtDNA levels, % of initial untreated levels ([2]; two weeks): below 2%
- minimum concentration required to deplete mtDNA to below 5% of the original level ([2]; BJ cells, three weeks from initiation of treatment): 2.5 µM
- Mutation rate [3, 4]: 0.6/MB
- Non-synonymous mutations [3, 4]: 26
- # SNVs ([3]; Signature 5): 2,230
- % of Total ([3]; Signature 5): 42.0%
- # SNVs ([3]; Signature 8): 873
- % of Total ([3]; Signature 8): 16.0%
- # SNVs ([3]; Signature 9): 854
- % of Total ([3]; Signature 9): 16.0%
- # SNVs ([3]; Signature 16): 200
- % of Total ([3]; Signature 16): 4.0%
- # SNVs ([3]; Signature 18): 471
- % of Total ([3]; Signature 18): 9.0%
- abundance of non-synonymous mutations [3, 5]: low abundance
- changes in DNA copy number [3, 5]: no changes in DNA copy number
- chromosomal breaks [3, 5]: no chromosomal breaks
